PubChem BioAssay (NCI)
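Where inhibition never reached the appropriate level, the endpoint shown equals the highest concentration tested. Otherwise, values were interpolated linearly from a five-concentration, 48-hour dose response in 96-well plates. GI50 marks 50% less growth. At the TGI there is no net growth.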

Tests used:
Assay in all cases: NCI anticancer screen, dose series, 48 h
A549 NSCLC = system: A549 NSCLC
CCRF-CEM leukemia = system: CCRF-CEM leukemia
MOLT-4 leukemia = system: MOLT-4 leukemia
KM12 colon = system: KM12 colon
ACHN renal = system: ACHN renal
MDA-MB-231 breast = system: MDA-MB-231 breast
RXF 393 renal = system: RXF 393 renal
LOX IMVI melanoma = system: LOX IMVI melanoma
HCT-15 colon = system: HCT-15 colon
OVCAR-8 ovarian = system: OVCAR-8 ovarian
M14 melanoma = system: M14 melanoma
TK-10 renal = system: TK-10 renal
HS 578T breast = system: HS 578T breast
CAKI-1 renal = system: CAKI-1 renal
DU-145 prostate = system: DU-145 prostate
SR leukemia = system: SR leukemia
COLO 205 colon = system: COLO 205 colon
NCI/ADR-RES ovarian = system: NCI/ADR-RES ovarian
T-47D breast = system: T-47D breast
MDA-MB-468 breast = system: MDA-MB-468 breast
SK-OV-3 ovarian = system: SK-OV-3 ovarian
UACC-257 melanoma = system: UACC-257 melanoma
OVCAR-4 ovarian = system: OVCAR-4 ovarian
EKVX NSCLC = system: EKVX NSCLC
SF-539 CNS = system: SF-539 CNS
HOP-62 NSCLC = system: HOP-62 NSCLC
UO-31 renal = system: UO-31 renal
HL-60(TB) leukemia = system: HL-60(TB) leukemia
SN12C renal = system: SN12C renal
MCF7 breast = system: MCF7 breast

Compound: C#CCN(C)CCCOc1ccc(N(CC)C(=O)c2cc(C(C)C)c(O)cc2O)cc1Cl
- TGI (A549 NSCLC): 15 µM
- GI50 (CCRF-CEM leukemia): 85.7 nM
- TGI (CCRF-CEM leukemia): 13.3 µM
- GI50 (MOLT-4 leukemia): 139 nM
- TGI (MOLT-4 leukemia): 13.2 µM
- GI50 (KM12 colon): 111 nM
- TGI (KM12 colon): 10.5 µM
- GI50 (ACHN renal): 105 nM
- TGI (ACHN renal): 12.7 µM
- GI50 (MDA-MB-231 breast): 230 nM
- TGI (MDA-MB-231 breast): 2750 nM
- GI50 (RXF 393 renal): 917 nM
- TGI (RXF 393 renal): 12.5 µM
- GI50 (LOX IMVI melanoma): 139 nM
- TGI (LOX IMVI melanoma): 359 nM
- GI50 (HCT-15 colon): 94.8 nM
- TGI (HCT-15 colon): 12.2 µM
- GI50 (OVCAR-8 ovarian): 219 nM
- TGI (OVCAR-8 ovarian): 15.6 µM
- GI50 (M14 melanoma): 462 nM
- TGI (M14 melanoma): 13 µM
- GI50 (TK-10 renal): 195 nM
- TGI (TK-10 renal): 12.3 µM
- GI50 (HS 578T breast): 1560 nM
- TGI (HS 578T breast): 21.1 µM
- GI50 (CAKI-1 renal): 350 nM
- TGI (CAKI-1 renal): 14.6 µM
- GI50 (DU-145 prostate): 59.5 nM
- TGI (DU-145 prostate): 15.3 µM
- GI50 (SR leukemia): 48.3 nM
- TGI (SR leukemia): 8.5 µM
- GI50 (COLO 205 colon): 3.08 µM
- TGI (COLO 205 colon): 13.4 µM
- GI50 (NCI/ADR-RES ovarian): 339 nM
- TGI (NCI/ADR-RES ovarian): 7.32 µM
- GI50 (T-47D breast): 88.8 nM
- TGI (T-47D breast): 11.9 µM
- GI50 (MDA-MB-468 breast): 115 nM
- TGI (MDA-MB-468 breast): 462 nM
- GI50 (SK-OV-3 ovarian): 52.1 nM
- TGI (SK-OV-3 ovarian): 12.4 µM
- GI50 (UACC-257 melanoma): 434 nM
- TGI (UACC-257 melanoma): 11.4 µM
- GI50 (OVCAR-4 ovarian): 1630 nM
- TGI (OVCAR-4 ovarian): 19.4 µM
- GI50 (EKVX NSCLC): 484 nM
- TGI (EKVX NSCLC): 8.53 µM
- GI50 (SF-539 CNS): 361 nM
- TGI (SF-539 CNS): 12.8 µM
- GI50 (HOP-62 NSCLC): 400 nM
- TGI (HOP-62 NSCLC): 19 µM
- GI50 (UO-31 renal): 156 nM
- TGI (UO-31 renal): 13.2 µM
- GI50 (HL-60(TB) leukemia): 73 nM
- TGI (HL-60(TB) leukemia): 2720 nM
- GI50 (SN12C renal): 105 nM
- TGI (SN12C renal): 8.28 µM
- GI50 (MCF7 breast): 56.1 nM
- TGI (MCF7 breast): 13.7 µM
